Tested on: Mfn2 null MEFs
Assay: Mitochondrial elongation (aspect ratio) fusogenicity assay
Type: cell-based, mouse
Design: % long compare to B: dose or concentration left out as unconfirmed
Details: for % long compare to B: mitochondrial elongation relative to Cpd B (B01 = 100), compound overnight as printed (FIG. 48); for % long compare to B / Aspect ratio (MEAN ± SEM): Mfn2 null MEFs; for Aspect ratio (MEAN ± SEM): overnight, treatment with 1 μM compound (footnote); for Fusogenicity Rank: rank order of aspect ratio among 44 soluble library compounds

SMILES	% long compare to B [%]	Aspect ratio (MEAN ± SEM)	Fusogenicity Rank
COc1ccccc1-n1c(C)nnc1SCC(=O)Nc1sc2c(c1C(N)=O)CCCC2 [1-F4, 2-(2-{[4-(2-methoxyphenyl)-5-methyl-4H-1,2,4-triazol-3-yl]sulfanyl}acetamido)-4,5,6,7-tetrahydro-1-benzothiophene-3-carboxamide]	22	–	–
CCn1c(SCC(=O)Nc2sc3c(c2C(=O)NCc2ccccc2)CCCC3)nnc1C1CC1 [1-E6, N-benzyl-2-{2-[(5-cyclopropyl-4-ethyl-4H-1,2,4-triazol-3-yl)sulfanyl]acetamido}-4,5,6,7-tetrahydro-1-benzothiophene-3-carboxamide]	10	–	–
Cc1ccc(-n2c(C)nnc2SCC(=O)Nc2sc3c(c2C(N)=O)CCC3)cc1 [1-F3, 2-(2-{[5-methyl-4-(4-methylphenyl)-4H-1,2,4-triazol-3-yl]sulfanyl}acetamido)-4H,5H,6H-cyclopenta[b]-thiophene-3-carboxamide]	13	–	–
COc1ccc(NC(=O)c2c(NC(=O)CSc3nnc(C4CC4)n3C)sc3c2CCCC3)cc1 [1-E4, 2-{2-[(5-cyclopropyl-4-methyl-4H-1,2,4-triazol-3-yl)sulfanyl]acetamido}-N-(4-methoxyphenyl)-4,5,6,7-tetrahydro-1-benzothiophene-3-carboxamide]	17	–	–
CC(Sc1nnc(N2CCOCC2)n1Cc1ccccc1)C(=O)Nc1ccc2c(c1)OCCO2 (centres unmarked) [A09, 2-{[4-benzyl-5-(morpholin-4-yl)-4H-1,2,4-triazol-3-yl]sulfanyl}-N-(2,3-dihydro-1,4-benzodioxin-6-yl)propanamide]	55	–	–
NC(=O)c1c(NC(=O)CSc2nc(C3CC3)n(-c3ccccc3)n2)sc2c1CCC2 [1-A5, 2-{2-[(5-cyclopropyl-1-phenyl-1H-1,2,4-triazol-3-yl)sulfanyl]acetamido}-4H,5H,6H-cyclopenta[b]thiophene-3-carboxamide]	−6	–	–
CC(Sc1nnc(N2CCOCC2)n1Cc1ccccc1)C(=O)Nc1ccc2[nH]c(=O)[nH]c2c1 (centres unmarked) [drawing 223, 2-{[4-benzyl-5-(morpholin-4-yl)-4H-1,2,4-triazol-3-yl]sulfanyl}-N-(2-oxo-2,3-dihydro-1H-1,3-benzodiazol-5-yl)propanamide]	–	5.2 ± 0.2	8
Cc1ccccc1NC(=O)NCCCCc1ccccc1 [A5, 3-(2-methylphenyl)-1-(4-phenylbutyl)urea]	7	–	–
Cc1ccc(-c2noc(CSCCCC(=O)Nc3c(C)cccc3C)n2)cc1F [B08, N-(2,6-dimethylphenyl)-4-({[3-(3-fluoro-4-methylphenyl)-1,2,4-oxadiazol-5-yl]methyl}sulfanyl)-butanamide]	12	–	–
O=C(NCCCCc1ccccc1)Nc1ccc(F)cc1 [A2, 3-(4-fluorophenyl)-1-(4-phenylbutyl)urea]	−4	–	–
c1ccc(CSCCc2nc(C3CCOC3)no2)cc1 (centres unmarked) [drawing 238, 5-[2-(benzylsulfanyl)ethyl]-3-(oxolan-3-yl)-1,2,4-oxadiazole]	–	3.4 ± 0.6	28
Cc1ccc2c(c1)SC(C(=O)NCc1ccc(N3CCCN(C)CC3)nc1)C2 (centres unmarked) [A07, 6-methyl-N-{[6-(4-methyl-1,4-diazepan-1-yl)pyridin-3-yl]methyl}-2,3-dihydro-1-benzothiophene-2-carboxamide]	14	–	–
C=CCn1c(SCC(=O)Nc2sc3c(c2C(N)=O)CCC3)nnc1-c1ccccc1 [1-F2, 2-(2-{[5-phenyl-4-(prop-2-en-1-yl)-4H-1,2,4-triazol-3-yl]sulfanyl}acetamido)-4H,5H,6H-cyclopenta[b]thio-phene-3-carboxamide]	−10	–	–
CCOC(=O)c1sc(NC(=O)C(CC)Sc2nnc3c(n2)[nH]c2ccccc23)nc1C (centres unmarked) [D04, ethyl 4-methyl-2-(2-{5H-[1,2,4]triazino[5,6-b]indol-3-ylsulfanyl}butanamido)-1,3-thiazole-5-carboxylate]	24	–	–
CC(c1cccc([N+](=O)[O-])c1)N(C)CC(=O)NCCSCc1ccccc1C#N (centres unmarked) [N-(2-{[(2-cyanophenyl)methyl]sulfanyl}ethyl)-2-{methyl[1-(3-nitrophenyl)ethyl]amino}acetamide]	–	4.0 ± 0.5	16
O=C(NCCSCc1cccc(Cl)c1)C1CCCCn2nnnc21 (centres unmarked) [drawing 222, N-(2-{[(3-chlorophenyl)methyl]sulfanyl}ethyl)-5H,6H,7H,8H,9H-[1,2,3,4]tetrazolo[1,5-a]azepine-9-carboxamide]	–	2.9 ± 0.2	38
O=C(NCCSCc1ccccc1F)NC1CCCCC1 [1-B10, 1-cyclohexyl-3-(2-{[(2-fluorophenyl)methyl]sulfanyl}ethyl)urea]	6	–	–
O=C(CSc1nnc2n1CCCCC2)Nc1sc2c(c1C(=O)NCc1ccccc1)CCCC2 [1-D4, N-benzyl-2-(2-{5H,6H,7H,8H,9H-[1,2,4]triazolo[4,3-a]azepin-3-ylsulfanyl}acetamido)-4,5,6,7-tetrahydro-1-benzothiophene-3-carboxamide]	105	–	–
CCCc1noc(C(C)Sc2nc3cc(C)ccc3[nH]2)n1 (centres unmarked) [C02, 5-methyl-2-{[1-(3-propyl-1,2,4-oxadiazol-5-yl)ethyl]sulfanyl}-1H-1,3-benzodiazole]	14	–	–
Cc1ccccc1-n1cnnc1SCC(=O)Nc1sc2c(c1C(N)=O)CCC2 [1-C5, 2-(2-{[4-(2-methylphenyl)-4H-1,2,4-triazol-3-yl]sulfanyl}acet-amido)-4H,5H,6H-cyclopenta-[b]thiophene-3-carboxamide]	12	–	–
CC1CCCCC1NC(=O)NCCSCc1ccccc1 (centres unmarked) [A10, 1-[2-(benzylsulfanyl)ethyl]-3-(2-methylcyclohexyl)urea]	71	–	4
CC(Sc1ccc(Br)cc1)C(=O)Nc1ccc2c(c1)OCCO2 (centres unmarked) [drawing 239, 2-[(4-bromophenyl)sulfanyl]-N-(2,3-dihydro-1,4-benzodioxin-6-yl)propanamide]	–	3.2 ± 0.5	33
S=C(NCCSCc1ccco1)NC1CC2CCC1C2 (centres unmarked) [B04, 1-{bicyclo[2.2.1]heptan-2-yl}-3-(2-{[(furan-2-yl)methyl]sulfanyl}ethyl)thiourea]	9	–	–
O=C(NCCSCc1ccc(Br)s1)C1CCCN(C(=O)c2cccs2)C1 (centres unmarked) [drawing 213, N-(2-{[(5-bromothiophen-2-yl)methyl]sulfanyl}ethyl)-1-(thiophene-2-carbonyl)piperidine-3-carboxamide]	–	5.1 ± 0.2	9
O=C(NCCSCc1ccsc1)C1CC2CCCC(C1)C2=O (centres unmarked) [drawing 241, 9-oxo-N-(2-{[(thiophen-3-yl)methyl]sulfanyl}ethyl)bicyclo[3.3.1]nonane-3-carboxamide]	–	4.4 ± 0.6	14
CC(Sc1nnc(N2CCOCC2)n1Cc1ccccc1)C(=O)Nc1ccc2[nH]c(=O)[nH]c2c1 (centres unmarked) [B03, 2-{[4-benzyl-5-(morpholin-4-yl)-4H-1,2,4-triazol-3-yl]sulfanyl}-N-(2-oxo-2,3-dihydro-1H-1,3-benzodiazol-5-yl)propanamide]	39	–	–
CC(Sc1nncn1-c1ccccc1)C(=O)Nc1sc2c(c1C(N)=O)CCC2 (centres unmarked) [1-G8, 2-{2-[(4-phenyl-4H-1,2,4-triazol-3-yl)sulfanyl]propanamido}-4H,5H,6H-cyclopenta[b]thio-phene-3-carboxamide]	14	–	–

From patent publication US10844023B2 (Washington University, priority 2017, dated 2020)
